Measurements from patent US8846928B2 (Portola Pharmaceuticals, Inc., priority 2010, dated 2014).
pIC50: −log10 of the molar value.

Molecular target: T1, full length active recombinant SYK enzyme (Homo sapiens, UniProt P43405)
T1 construct: full length active recombinant SYK enzyme (Millipore, Calif.); purchased Millipore
Assay: Inhibition of Syk tyrosine phosphorylation activity (LANCE TR-FRET kinase assay)
Format: biochemical
Procedure: Inhibition of Syk Tyrosine Phosphorylation Activity
Potency of candidate molecules for inhibiting Syk tyrosine phosphorylation activity is assessed by measuring the ability of a test compound to inhibit Syk-mediated tyrosine phosphorylation of a Syk-specific substrate.
SYK tyrosine phosphorylation activity is measured using the LANCE™ Technology developed by Perkin Elmer Life and Analytical Sciences (Boston, Mass.). LANCE™ refers to homogeneous time resolved fluorometry applications using techniques such as time-resolved fluorescence resonance energy transfer assay (TR-FRET) (see generally for procedures in Perkin Elmer Application Note—How to Optimize a Tyrosine Kinase Assay Using Time Resolved Fluorescence-Based LANCE Detection, wwww.perkinelmer.com/lifesciences). The assay principle involves detection of a phosphorylated substrate using energy transfer from a phosphospecific europium-labeled antibody to streptavidin-allophycocyanin as an acceptor.
To test the ability of candidate molecules to inhibit SYK tyrosine phosphorylation activity, molecules are reconstituted in 30% DMSO and serially diluted 1:3 with the final dilution containing DMSO in the absence of the candidate molecule. The final DMSO concentration in the assay is 3%. Kinase assays are performed as a two part reaction. […] The second reaction involves termination of the kinase reaction and the simultaneous addition of the detection reagents—europium-labeled anti-phosphotyrosine reagent (Eu-W1024-PY100, Perkin Elmer, Boston, Mass.) and Streptavidin-Allophycocyanin detection reagent (SA-APC, Prozyme, Calif.). The kinase reaction is performed in a black U-bottom 96-well microtitre plate. The final reaction volume is 50 μL and contains a final concentration of 1 nM active SYK enzyme, 550 nM SYK-substrate, and 100 μM ATP diluted in a buffer containing 50 mM Tris pH 7.5, 5 mM MgCl2, and 1 mM DTT. The reaction is allowed to proceed for 1 hour at room temperature. The quench buffer contains 100 mM Tris pH 7.5, 300 mM NaCl2, 20 mM EDTA, 0.02% Brij35, and 0.5% BSA. The detection reagents are added to the reaction mixture at the following dilutions-1:500 for Eu-W1024-PY100 and 1:250 for SA-APC. The kinase reaction is terminated by the addition of 50 μL quench buffer containing the detection reagents. The detection is allowed to proceed for 1 hr at room temperature. Detection of the phosphorylated substrate in the absence and presence of inhibitors is measured in the TR-FRET instrument, Analyst HT (Molecular Probes, Sunnyvale, Calif.) and the condition for measurements are set up using CriterionHost Release 2.0 (Molecular Probes, Sunnyvale, Calif.). The settings used are a follows: excitation 360 nm, emission 665-7.5 nm, beam splitter 350 nm 50/50, flash 100 pulses, delay 60 us, integration 400 us, z-height 2 mm. […] IC50s were derived by non-linear regression analysis. […]

**Q.** How did the pIC50 turn out when `NC(=O)c1cc(F)c(N[C@@H]2CCCC[C@@H]2N)nc1Nc1cncc(-n2nccn2)c1` [Example 154, 2-(5-(2H-1,2,3-triazol-2-yl)pyridin-3-ylamino)-6-((1R,2S)-2-aminocyclohexylamino)-5-fluoronicotinamide] was run?
**A.** Its pIC50 is 8.00 to 9.00.

**Q.** How did the pIC50 turn out when `NC(=O)c1ccc(N[C@@H]2CCCC[C@@H]2N)nc1Nc1cncc(-c2nccs2)c1` [Example 163] was run?
**A.** Its pIC50 is 8.00 to 9.00.

**Q.** How did the pIC50 turn out when `CC[C@@H](Nc1nc(Nc2ccc3ccccc3c2)c(C(N)=O)cc1F)C(N)=O` [Example 233, (R)-6-(1-amino-1-oxobutan-2-ylamino)-5-fluoro-2-(naphthalen-2-ylamino)nicotinamide] was run?
**A.** Its pIC50 is 8.00 to 9.00.

**Q.** `Cn1cc2c(Nc3nc(N[C@@H]4CCCC[C@@H]4N)c(C#N)cc3C(N)=O)cccc2n1` [Example 115, 6-((1R,2S)-2-aminocyclohexylamino)-5-cyano-2-(2-methyl-2H-indazol-4-ylamino)nicotinamide] was tested. Which pIC50 did it give?
**A.** The pIC50 was 8.00 to 9.00.

**Q.** `Cc1cc(Nc2cc(N[C@H](Cc3ccccc3)C(N)=O)ccc2C(N)=O)sn1` [Example 14, (R)-4-(1-amino-1-oxo-3-phenylpropan-2-ylamino)-2-(3-methylisothiazol-5-ylamino)benzamide] was tested. Which pIC50 did it give?
**A.** Its pIC50 is 7.00 to 8.00.

**Q.** How did the pIC50 turn out when `Cc1cc(Nc2cc(N[C@@H]3CCCC[C@@H]3N)ccc2C(N)=O)on1` [Example 147, 4-((1R,2S)-2-aminocyclohexylamino)-2-(3-methylisoxazol-5-ylamino)benzamide] was run?
**A.** The pIC50 was 6.00 to 7.00.

**Q.** How did the pIC50 turn out when `CC[C@@H](Nc1nc(Nc2ccc3ncsc3c2)c(C(N)=O)cc1F)C(N)=O` [Example 234, (R)-6-(1-amino-1-oxobutan-2-ylamino)-5-fluoro-2-(benzo[d]thiazol-6-ylamino)nicotinamide] was run?
**A.** The pIC50 was 7.00 to 8.00.

**Q.** How did the pIC50 turn out when `NC(=O)c1ccc(N[C@@H]2CCCC[C@@H]2N)nc1Nc1ccc2ncccc2c1` [Example 134, 2-(quinolin-6-ylamino)-6-((1R,2S)-2-aminocyclohexylamino)nicotinamide] was run?
**A.** The pIC50 was 8.00 to 9.00.

**Q.** `NC(=O)c1cc(F)c(N[C@@H]2CCCC[C@@H]2N)nc1Nc1cncc(-c2ncccn2)c1` [Example 156, 6-((1R,2S)-2-aminocyclohexylamino)-5-fluoro-2-(5-(pyrimidin-2-yl)pyridin-3-ylamino)nicotinamide] was tested. Which pIC50 did it give?
**A.** The pIC50 was 8.00 to 9.00.

**Q.** With `NC(=O)c1cc(F)c(N[C@H](CC(F)(F)F)C(N)=O)nc1Nc1cnc2ccccc2c1` [Example 301, (R)-6-(1-amino-4,4,4-trifluoro-1-oxobutan-2-ylamino)-5-fluoro-2-(quinolin-3-ylamino)nicotinamide] as the compound, how does the pIC50 read?
**A.** Its pIC50 is 7.00 to 8.00.

**Q.** With `Cc1cc(Nc2cc(N[C@H](CC(C)C)C(N)=O)c(F)cc2C(N)=O)sn1` [Example 20, (R)-4-(1-amino-4-methyl-1-oxopentan-2-ylamino)-5-fluoro-2-(3-methylisothiazol-5-ylamino)benzamide] as the compound, how does the pIC50 read?
**A.** The pIC50 was 7.00 to 8.00.

**Q.** How did the pIC50 turn out when `CC[C@H](Nc1nc(Nc2cccnc2)c(C(N)=O)cc1F)C1(N)CC1` [Example 371, (S)-6-(1-(1-aminocyclopropyl)propylamino)-5-fluoro-2-(pyridin-3-ylamino)nicotinamide] was run?
**A.** The pIC50 was less than 6.00.

**Q.** `Cc1cc(Nc2nc(N[C@@H]3CCCC[C@@H]3N)c(F)cc2C(N)=O)sn1` [Example 82, 6-((1R,2S)-2-aminocyclohexylamino)-5-fluoro-2-(3-methylisothiazol-5-ylamino)nicotinamide] was tested. Which pIC50 did it give?
**A.** Its pIC50 is 8.00 to 9.00.

**Q.** `NC(=O)c1cc(F)c(N[C@@H]2CCCC[C@@H]2N)nc1Nc1ccc(N2CCOCC2)cc1` [Example 54, 6-((1R,2S)-2-aminocyclohexylamino)-5-fluoro-2-(4-morpholinophenylamino)nicotinamide] was tested. Which pIC50 did it give?
**A.** The pIC50 was 7.00 to 8.00.

**Q.** `Cn1ncc2c(Nc3nc(N[C@H]4[C@@H](N)CCCC4(F)F)c(F)cc3C(N)=O)cccc21` [Example 389, 6-((1S,6S)-6-amino-2,2-difluorocyclohexylamino)-5-fluoro-2-(1-methyl-1H-indazol-4-ylamino)nicotinamide] was tested. Which pIC50 did it give?
**A.** The pIC50 was 8.00 to 9.00.

**Q.** With `NC(=O)c1ccc(N[C@@H]2CCCC[C@@H]2N)nc1Nc1ccc(-n2cccn2)cc1` (relative stereo) [Example 140, 6-(cis-2-aminocyclohexylamino)-2-(4-(1H-pyrazol-1-yl)phenylamino)nicotinamide] as the compound, how does the pIC50 read?
**A.** The pIC50 was 7.00 to 8.00.
